Legend:
TNF-α = test: Cell-based TNF-α inhibition assay in LPS-induced PBMCs (Meso Scale); details: PBMC, PBMCs pretreated 1 h, LPS 100 ng/mL 18-24 h, relative to stimulated DMSO control; for inhibition at 0.1 µM: compound concentration 0.1 μM; for inhibition at 1 µM: compound concentration 1 μM
Method in brief: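 Thawed human PBMCs (200,000/well) in RPMI/10% FBS were pretreated with compound or DMSO for 1 h, then stimulated with LPS (100 ng/mL) for 18-24 h. Supernatant TNF-α was measured by Meso Scale; activity expressed as percent of stimulated DMSO control (percent inhibition).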

PDE4B = biological target: T1, PDE4B (Homo sapiens, UniProt Q07343); test: Protein degradation assay in A549 cells, western blot, PDE4B; format: cell-based; details: 24 h treatment, read-out: PDE4B degradation relative to DMSO
T1 construct: Whole cell extracts were prepared using an immunoprecipitation (IP) lysis buffer; endogenous in cells; host or cells: A549
T1 sequence (Q07343 whole entry): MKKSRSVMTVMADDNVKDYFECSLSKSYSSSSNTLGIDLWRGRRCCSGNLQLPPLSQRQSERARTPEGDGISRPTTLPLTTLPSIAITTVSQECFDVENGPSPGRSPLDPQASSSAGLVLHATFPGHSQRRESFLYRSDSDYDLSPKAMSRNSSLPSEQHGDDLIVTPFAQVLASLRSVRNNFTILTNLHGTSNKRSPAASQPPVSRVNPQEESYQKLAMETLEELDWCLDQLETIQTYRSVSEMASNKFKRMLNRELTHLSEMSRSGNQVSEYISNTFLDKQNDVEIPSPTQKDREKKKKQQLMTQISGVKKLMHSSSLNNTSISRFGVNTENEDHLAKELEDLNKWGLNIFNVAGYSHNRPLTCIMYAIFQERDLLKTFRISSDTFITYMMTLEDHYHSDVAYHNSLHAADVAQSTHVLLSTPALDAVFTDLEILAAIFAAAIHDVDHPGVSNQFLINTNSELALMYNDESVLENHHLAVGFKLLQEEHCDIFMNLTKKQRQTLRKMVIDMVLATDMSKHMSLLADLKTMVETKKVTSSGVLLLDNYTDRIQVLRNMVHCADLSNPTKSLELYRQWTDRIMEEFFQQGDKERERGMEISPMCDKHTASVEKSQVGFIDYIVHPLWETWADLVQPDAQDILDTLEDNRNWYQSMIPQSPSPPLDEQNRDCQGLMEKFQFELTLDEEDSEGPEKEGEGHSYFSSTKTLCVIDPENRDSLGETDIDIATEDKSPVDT
Description: (§1) A549 cells were grown in RPMI 1640 media supplemented with 10% fetal bovine serum, streptomycin, and penicillin. The cells were plated in 6-well plates in the growth media. The next day, fresh growth media were replaced on the cells. The cells were then treated with a compound for 24 h at predetermined concentrations. Whole cell extracts were prepared using an immunoprecipitation (IP) lysis buffer. Briefly, the cells were washed once in PBS, and the cell pellets were resuspended in the IP lysis buffer and incubated for 15 min on ice. Cells debris was removed by centrifugation and the cleared whole cell lysates were transferred to new tubes for further analysis.
(§2) For a western blot analysis, the whole cell protein extracts were separated on 4-12% SDS-polyacrylamide gels, transferred to nitrocellulose, and probed with primary antibodies. Membranes were subsequently washed and probed with IRDYE® secondary antibodies. The signals were detected using an ODYSSEY® Imaging System. The antibodies used in the assay included anti-PDE4B antibody; anti-PDE4D antibodies (top, bottom, and short isoform); β-actin mouse monoclonal antibody; IRDYE® 680RD goat anti-rabbit antibody; and IRDYE® 800CW goat anti-mouse antibody. Compounds B2 to B4, B18, B49 to B52, B76, B77, B79, B81 to B83, B88, B89, and B91 were determined to be able to degradate PDE4B as high as about 50% relative to DMSO.

PDE4D short isoform = test: Protein degradation assay in A549 cells, western blot, PDE4D; format: cell-based; details: 24 h treatment, same conditions
Description: as §1, §2

Structure (SMILES)	Dmax (PDE4B)	inhibition at 0.1 µM (TNF-α)	inhibition at 1 µM (TNF-α)	PDE4D degradation (result in words) (PDE4D short isoform)
CCOc1cc([C@@H](CS(C)(=O)=O)N2C(=O)c3cc(CCCCCCCCCCCCN4CCC(c5cc(F)cc6c5CN(C5CCC(=O)NC5=O)C6=O)CC4)cc(NC(C)=O)c3C2=O)ccc1OC (stereo partly drawn) [Compound B79, N-(6-(12-(4-(2-(2,6-Dioxopiperidin-3-yl)-6-fluoro-1-oxoisoindolin-4-yl)piperidin-1-yl)dodecyl)-2-((S)-1-(3-ethoxy-4-methoxyphenyl)-2-(methylsulfonyl)ethyl)-1,3-dioxoisoindolin-4-yl)acetamide]	≤ 50%	≥ 60%	≥ 60%	
CCOc1cc([C@@H](CS(C)(=O)=O)N2C(=O)c3cccc(NC(C)=O)c3C2=O)ccc1OC [apremilast]				did not degradate the PDE4D

More lines, main results first:

Dmax (PDE4B)	Structure (SMILES)	inhibition at 0.1 µM (TNF-α)	inhibition at 1 µM (TNF-α)	PDE4D degradation (result in words) (PDE4D short isoform)
≤ 50%	Cc1ncsc1-c1ccc(CNC(=O)[C@@H]2C[C@@H](O)CN2C(=O)[C@@H](NC(=O)CCCCCCCCCCOc2cc(C(=O)Nc3c(Cl)cncc3Cl)ccc2OC(F)F)C(C)(C)C)cc1 [Compound B76, (2S,4R)-1-((S)-2-(11-(5-((3,5-Dichloropyridin-4-yl)carbamoyl)-2-(difluoromethoxy)phenoxy)undecanamido)-3,3-dimethylbutanoyl)-4-hydroxy-N-(4-(4-methylthiazol-5-yl)benzyl)pyrrolidine-2-carboxamide]	≥ 60%	≥ 60%	
≤ 50%	CCOc1cc([C@@H](CS(C)(=O)=O)N2C(=O)c3cccc(NC(=O)CCCCCCCCN4CCC(c5cc(F)cc6c5CN(C5CCC(=O)NC5=O)C6=O)CC4)c3C2=O)ccc1OC (stereo partly drawn) [Compound B77, 9-(4-(2-(2,6-Dioxopiperidin-3-yl)-6-fluoro-1-oxoisoindolin-4-yl)piperidin-1-yl)-N-(2-((S)-1-(3-ethoxy-4-methoxyphenyl)-2-(methylsulfonyl)ethyl)-1,3-dioxoisoindolin-4-yl)nonanamide]	40 to 60%	≥ 60%	
≤ 50%	O=C1CCC(N2Cc3c(cc(F)cc3C3CCN(CCCOc4cc(C(=O)Nc5c(Cl)cncc5Cl)ccc4OC(F)F)CC3)C2=O)C(=O)N1 (stereo not drawn) [Compound B83, N-(3,5-Dichloropyridin-4-yl)-4-(difluoromethoxy)-3-(3-(4-(2-(2,6-dioxopiperidin-3-yl)-6-fluoro-1-oxoisoindolin-4-yl)piperidin-1-yl)propoxy)benzamide]		20 to 40%	

Source: patent US12522612B2, “PDE4 inhibitors, pharmaceutical compositions, and therapeutic applications” (BioTheryX, Inc., priority 2019, dated 2026)
